Data set [1] concerns the target proteinase K (Parengyodontium album, UniProt P06873). Description: Protease stability assay. The following applies: proteinase K 10 μg·ml^−1, fluorescein-labeled peptide 50 μM, 10 mM Tris pH 8.0, 150 mM NaCl, room temperature, HPLC absorbance 210 nm, exponential decay fit. The data set is classed as in vitro ADME. The method, then: Protease stability assays were performed in analogy to a previously published protocol ([47]). Stocks of fluorescein-labeled peptides were prepared to a concentration of 55.5 μM in assay buffer (10 mM Tris, pH 8.0, 150 mM NaCl) and separately stocks of proteinase K also in assay buffer (c = 100 μg·ml^−1). To begin each experiment, peptide and proteinase K stocks were mixed (final concentrations: c = 10 μg·ml^−1 proteinase K, c = 50 μM fluorescein-labeled peptide; final volume = 500 μl) and incubated at room temperature. At each time point, 50 μl of the reaction mixture was quenched by adding 100 μl of TFA/ACN/H2O (v/v/v, 1:49:49) and subsequently incubated for 2 min on ice. Following centrifugation (15 min, 13200 rpm, 4°C), samples (45 μl) were monitored by analytical HPLC using a linear gradient of 10–60% HPLC solvent B over 20 min. The amount of remaining peptide was quantified via absorbance at λ = 210 nm (intact peptide (%)) and plotted against time (t) (h). Half-life (t1/2) was calculated by fitting the data to an exponential decay using the software Prism 5.0 (GraphPad).

Data set [2] is described as follows: CD spectroscopy, secondary structure content. The data set is classed as physicochemical. To be noted: fluorescein-labeled peptide 75 μM, 10 mM sodium phosphate pH 7.4, CDNN/PEPFIT; for Helix (α-helicity): unbound. As to the method:
Spectra of fluorescein-labeled peptides were recorded with a J-715 circular dichroism spectrometer (Jasco) using a stoppered quartz cuvette (1 mm; Hellma). Peptide samples (c = 75 μM) were prepared in buffer: 10 mM disodium hydrogen phosphate, pH 7.4. For each sample, 10 CD spectra were measured between λ = 190 and 260 nm with continuous scan mode (10 mdeg sensitivity, 1.0 nm resolution, 1.0 nm bandwidth, 2 s integration time, 50 nm/min scan rate). Obtained spectra were averaged, then subtracted from a reference buffer spectrum and smoothed using a fast Fourier transform filter (FFT filter). The mean residue ellipticity (Θ) (deg·cm^2·dmol^−1·10^4) was calculated using Formula (2) and plotted against wavelength (λ) (nm). The ratio of secondary structure elements was calculated with CDNN using the PEPFIT set of reference spectra for secondary structure determination ([45],[46]):(2) where [Θ]m = mean molar ellipticity per peptide bond (degree·cm^2·dmol^−1·10^4), Θ = measured ellipticity (degree), d = optical path length (cm), cg = mass concentration (g·l^−1), MRW = mean residue weight, M = molar mass of the peptide (g·mol^−1) and N = number of peptide bonds.

Data set [3] concerns the target pal-RNA duplex. As to the kind of experiment: ITC of N-terminally acetylated peptides with pal-RNA duplex. In kind it is binding. As to the method:
Isothermal titration calorimetry (ITC) was conducted using a MicroCal VP-ITC (Malvern Panalytical). Before measurement, oligonucleotide and peptide samples were dissolved in PBS and degassed using a ThermoVac (Malvern Panalytical) and heated to 30°C. N-terminally acetylated peptides (c = 3–12 μM) were then transferred into the sample cell and oligonucleotides (c = 12–72 μM) were transferred into the syringe. 35 Injections per measurement were performed at 30°C (8 μl injection volume, 2 s injection time, 180 s spacing, high feedback mode) with an initial delay of 60 s and a stirring speed of 307 rpm. Measurements were performed in triplicate. Using the MicroCal LLC ITC software (Origin; OriginLab Corporation), the heat associated with each injection was calculated by integrating the area under the curve in microcalories per second [μca/s] versus time [min] for each injection and then normalized to concentration. A ‘single set of identical binding sites’ model was used to fit the binding curves from which thermodynamic binding parameters (ΔG, ΔH, ΔS, N and Kd) were obtained.

Data set [4] has as its system ds pal-RNA. Description: EMSA with ds pal-RNA. To be noted: fluorescein-labeled peptide 6 μM, RNA 3 μM, 10% native PAGE, 4°C. The data set is classed as binding. The method, then: Electrophoretic mobility shift assays (EMSAs) were performed using a Bio-Rad Mini-Protean gel system paired with a direct current (DC) power source (PowerPac™ HC, Bio-Rad). Typically, 6 μl solutions containing ds RNA (c = 3 μM) and fluorescein-labeled peptide (c = 6 μM) were incubated in binding buffer (10 mM Tris (pH 8.0), 0.5 mM EDTA, 12.5% glycerol and 150 mM KCl) at 4°C for 1 h. After incubation, bound RNA was resolved from peptide-free RNA using 10% non-denaturing polyacrylamide gels at 120 V in running buffer (25 mM Tris (pH 8.0), 200 mM glycine, 20 mM NaCl) at 4°C for 1 h. Visualization of fluorescent gel-bound species was conducted using a Typhoon Trio + fluorescence scanner (GE Healthcare Life Sciences). For nucleic acid visualization, gels were stained using 2 μl of SYBR™ gold nucleic acid gel dye (Molecular Probes) in 20 ml of TAE buffer (40 mM Tris, 1 mM EDTA, 20 mM acetic acid) for 45 min at RT before being visualized using a FluorChem™ gel documentation system (Alpha Innotech). To assess B3 binding to different ds RNA sequences (Supplementary Figure S20), 6 μl solutions containing hairpin RNA (c = 1 μM) and fluorescein-labeled B3 (c = 2 μM) were incubated in binding buffer (TAE and 10% glycerol) at RT for 1 h, and then resolved using 15% non-denaturing polyacrylamide gels (acrylamide/bis-acrylamide (19:1) in TAE) at 150 V in running buffer (TAE) at 4°C for 1.5 h. Visualization of fluorescent gel-bound species was conducted using a Bio-Rad ChemiDoc (Bio-Rad). Subsequently, gels were stained with SYBR™ gold nucleic acid gel dye (Invitrogen) as described above and visualized using the same imaging system. To assess B3 binding to pre–miR-21 (Supplementary Figure S24), the RNA was prepared at a fixed concentration (c = 1 μM) and incubated with varying concentrations of fluorescein-labeled B3 (c = 0–5 μM) in binding buffer (TAE and 10% glycerol) at RT for 1 h. After incubation, bound nucleic acid complexes were resolved using 15% non-denaturing polyacrylamide gels (acrylamide/bis-acrylamide (19:1) in TAE) at 150 V in running buffer (TAE) at 4°C for 1.5 h, followed by visualization and staining with SYBR™ gold nucleic acid gel dye (Invitrogen).

Where “and” joins values, the source holds several entries; their conditions need not be identical. Equal entries are not always repeated. Positions of bridges follow the written chain, without caps; N, C: chain ends. Non-standard residues stand in square brackets, D forms with d. Residues, ends and D or L forms follow the SMILES beside them. *: point of attachment. FITC = O=C1OC2(c3ccc(O)cc3Oc3cc(O)ccc32)c2ccc(NC(=S)*)cc21; R8 = C=CCCCCCC[C@@](C)(N)C(=O)O; S5 = C=CCCC[C@](C)(N)C(=O)O; AEEA = NCCOCCOCC(=O)O

Three compounds from article PMC8682738, “Constrained peptides mimic a viral suppressor of RNA silencing” (Nucleic Acids Research, 2021) can be followed below.

proteinase K, sequence (P06873 106-384): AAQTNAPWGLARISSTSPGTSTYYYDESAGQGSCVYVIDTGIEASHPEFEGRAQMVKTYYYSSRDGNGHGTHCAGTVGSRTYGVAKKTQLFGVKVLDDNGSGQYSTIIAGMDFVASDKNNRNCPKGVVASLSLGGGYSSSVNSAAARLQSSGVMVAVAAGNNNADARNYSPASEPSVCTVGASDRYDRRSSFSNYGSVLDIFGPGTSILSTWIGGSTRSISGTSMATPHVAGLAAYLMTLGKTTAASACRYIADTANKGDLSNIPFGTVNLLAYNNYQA

On to `CC(C)C[C@H](NC(=O)[C@H](CCC(=O)O)NC(=O)[C@H](CO)NC(=O)[C@H](CCCNC(=N)N)NC(=O)[C@H](CCCNC(=N)N)NC(=O)[C@H](CCC(N)=O)NC(=O)[C@H](CCC(=O)O)NC(=O)[C@H](CO)NC(=O)[C@@H]1CCCN1C(=O)[C@H](CO)NC(=O)[C@H](CCCCN)NC(=O)[C@H](Cc1c[nH]cn1)NC(=O)CNC(=O)[C@H](CCCNC(=N)N)NC(=O)[C@H](CCC(=O)O)NC(=O)[C@H](CCCCN)NC(=O)[C@H](CCCNC(=N)N)NC(=O)[C@H](CC(N)=O)NC(=O)[C@]1(C)CCCC=CCCCCCC[C@@](C)(NC(=O)[C@H](CCC(N)=O)NC(=O)[C@H](CCCCN)NC(=O)[C@H](CCCCN)NC(=O)COCCOCCNC(=S)Nc2ccc3c(c2)C(=O)OC32c3ccc(O)cc3Oc3cc(O)ccc32)C(=O)N[C@@H](CCC(N)=O)C(=O)N[C@@H](CCCNC(=N)N)C(=O)N[C@@H](CCCCN)C(=O)N[C@@H](CCCNC(=N)N)C(=O)N[C@@H](Cc2c[nH]cn2)C(=O)N[C@@H](CCCCN)C(=O)N1)C(=O)N[C@@H](Cc1c[nH]c2ccccc12)C(=O)N[C@@H](Cc1c[nH]cn1)C(=O)N[C@@H](C)C(=O)N[C@@H](CCCNC(=N)N)C(N)=O` [A1] ({FITC-AEEA}-KKQ[R8]QRKRHK[S5]NRKERGHKSPSEQRRSELWHAR-NH2; staple 4-11), for which the half-life t1/2 came out at 3 min. Also, in data set [1], the “Half-life (t1/2)” value turned out to be 2.4 min. In addition, in data set [2], the Random coil worked out at 51.4%, the β-Sheet worked out at 2.9%, the β-Turn came out at 9.6% and the “Helix (α-helicity)” value came to 39.1%.

Regarding `CC(C)C[C@H](NC(=O)[C@H](CCC(=O)O)NC(=O)[C@H](CO)NC(=O)[C@H](CCCNC(=N)N)NC(=O)[C@H](CCCNC(=N)N)NC(=O)[C@H](CCC(N)=O)NC(=O)[C@H](CCC(=O)O)NC(=O)[C@H](CO)NC(=O)[C@@H]1CCCN1C(=O)[C@H](CO)NC(=O)[C@H](CCCCN)NC(=O)[C@H](Cc1c[nH]cn1)NC(=O)CNC(=O)[C@H](CCCNC(=N)N)NC(=O)[C@]1(C)CCCC=CCCC[C@](C)(NC(=O)[C@H](CCCCN)NC(=O)[C@H](Cc2c[nH]cn2)NC(=O)[C@H](CCCNC(=N)N)NC(=O)[C@H](CCCCN)NC(=O)[C@H](CCCNC(=N)N)NC(=O)[C@H](CCC(N)=O)NC(=O)[C@H](C)NC(=O)[C@H](CCC(N)=O)NC(=O)[C@H](CCCCN)NC(=O)[C@H](CCCCN)NC(=O)COCCOCCNC(=S)Nc2ccc3c(c2)C(=O)OC32c3ccc(O)cc3Oc3cc(O)ccc32)C(=O)N[C@@H](CC(N)=O)C(=O)N[C@@H](CCCNC(=N)N)C(=O)N[C@@H](CCCCN)C(=O)N1)C(=O)N[C@@H](Cc1c[nH]c2ccccc12)C(=O)N[C@@H](Cc1c[nH]cn1)C(=O)N[C@@H](C)C(=O)N[C@@H](CCCNC(=N)N)C(N)=O` [A3] ({FITC-AEEA}-KKQAQRKRHK[S5]NRK[S5]RGHKSPSEQRRSELWHAR-NH2; staple 11-15), the half-life t1/2 was determined as 3 min. The “Half-life (t1/2)” value in data set [1] is on record as 3.5 min. Also, in data set [2], the Random coil stood at 52.8%, the β-Sheet turned out to be 10.6%, the β-Turn was 10.1% and the “Helix (α-helicity)” value is recorded as 24.0%.

The term Kd denotes the constant that tells how readily two partners part at equilibrium. `CC(C)C[C@H](NC(=O)[C@]1(C)CCCC=CCCC[C@](C)(NC(=O)[C@H](CCC(=O)O)NC(=O)[C@H](CO)NC(=O)[C@@H]2CCCN2C(=O)[C@H](CO)NC(=O)[C@H](CCCCN)NC(=O)[C@H](Cc2c[nH]cn2)NC(=O)CNC(=O)[C@H](CCCNC(=N)N)NC(=O)[C@H](CCC(=O)O)NC(=O)[C@H](CCCCN)NC(=O)[C@H](CCCNC(=N)N)NC(=O)[C@H](CC(N)=O)NC(=O)[C@]2(C)CCCC=CCCCCCC[C@@](C)(NC(=O)[C@H](CCC(N)=O)NC(=O)[C@H](CCCCN)NC(=O)[C@H](CCCCN)NC(=O)COCCOCCNC(=S)Nc3ccc4c(c3)C(=O)OC43c4ccc(O)cc4Oc4cc(O)ccc43)C(=O)N[C@@H](CCC(N)=O)C(=O)N[C@@H](CCCNC(=N)N)C(=O)N[C@@H](CCCCN)C(=O)N[C@@H](CCCNC(=N)N)C(=O)N[C@@H](Cc3c[nH]cn3)C(=O)N[C@@H](CCCCN)C(=O)N2)C(=O)N[C@@H](CCCNC(=N)N)C(=O)N[C@@H](CCCNC(=N)N)C(=O)N[C@@H](CO)C(=O)N1)C(=O)N[C@@H](Cc1c[nH]c2ccccc12)C(=O)N[C@@H](Cc1c[nH]cn1)C(=O)N[C@@H](C)C(=O)N[C@@H](CCCNC(=N)N)C(N)=O` [B1] ({FITC-AEEA}-KKQ[R8]QRKRHK[S5]NRKERGHKSPSE[S5]RRS[S5]LWHAR-NH2; staple 4-11, 24-28) gave a Kd in data set [3] (N-terminally acetylated peptide, PBS pH 7.4, 30°C, single set of identical binding sites model, triplicate, errors 1σ) of 260 nM. Besides, the “fold increased affinity compared to linear peptide wt33” value in data set [3] (unlabeled analogs, pal-RNA) amounted to 5 fold. In addition, the “Half-life (t1/2)” value in data set [1] is 829 min. In data set [4], the “binding to ds pal-RNA in EMSA” value is given as “full disappearance of the ds pal-RNA band”. Besides, in data set [2], the Random coil was found to be 13.8%; the β-Sheet is 19.0%; the β-Turn was 13.1%; the “Helix (α-helicity)” value was 81.8% and 82–85%.
